According to patent US12018093B2, “Hemiasterlin derivatives and antibody-drug conjugates including same” (priority 2017, dated 2024):
*1 amine or outer side, *2 acyl side, *3 side chain or, on linkers, in order; H or OH if unused. Where a SMILES comes first, the peptide text is derived from it. [ ]: non-standard residue; d: D form. NMeTrp(1,β,β-Me3) = CN[C@H](C(=O)O)C(C)(C)c1cn(C)c2ccccc12; X1 = C/C(=C\[C@H](C(C)C)N(C)[*:1])C(=O)[*:2]; Tle = CC(C)(C)[C@H](N)C(=O)O

Key:
Karpas-299 cells = assay: Cellular toxicity test (1), CellTiter-Glo, Karpas-299; type: cell-based; settings: Homo sapiens, 96 h, cultured 4 days, cell viability
Method: SU-DHL-1 cells (American Type Culture Collection, hereinafter, ATCC) and Karpas-299 cells (European Collection of Authenticated Cell Cultures, hereinafter, ECACC), which are human lymphoma cell lines, were cultured in RPMI 1640 (GIBCO) containing 10% fetal bovine serum (MP Biomedicals) (hereinafter, referred to as the “culture medium” in this test). SU-DHL-1 cells and Karpas-299 cells were prepared to be 2×10^6 cells/mL in the culture medium, and were added to a 96 well microplate for cell culturing in an amount of 50 μL for each well. Compounds of Examples or hemiasterlin 4 times diluted with the culture medium in 8 stages were added to the microplate in an amount of 50 μL for each well. To wells to which the test substance was not added, the culture medium was added in an amount of 50 μL for each well. These were cultured at 37 degree under 5% CO2 for 4 days. After culturing, the microplate was taken out from the incubator, and was left at rest at room temperature for 10 minutes. To each well, 50 μL of CellTiter-Glo Luminescent Cell Viability Assay (Promega) was added, and the resultant mixture was stirred. This mixture was incubated at a dark place for 20 minutes. Using a microplate luminometer, luminescence at each well was measured, thereby calculating the cell viability for each concentration of the test substance. From the cell viability, the IC50 value of the test substance was determined.
The IC50 value was calculated by the following formula: IC50(nM)=antilog(LOG10(a/b)×(e−d)/(c−d)+LOG10b) • a: concentration a of test substance • b: concentration b of test substance • c: cell viability upon adding test substance with concentration a • d: cell viability upon adding test substance with concentration b • e: intermediate value between maximum and minimum among cell viabilities upon • adding test substances with different concentrations (a and b are concentrations crossing the cell viability e, and a>b is indicated).
The cell viability at each concentration was calculated by the following formula: Cell Viability (%)=a′/b′×100 • a′: mean value of luminescence amount of wells to which test substance was added (n=6) • b′: mean value of luminescence amount of wells to which test substance was not added (n=6) • (n represents the number of evaluations performed per test substance concentration).

in vitro = settings: PAMPA, pH 7.4
Method: By the parallel artificial membrane permeability assay (PAMPA), the membrane permeability of compounds of Examples was examined as follows: To the donor plate, System solution (pION inc.) and GIT Lipid-0 (pION inc.) were added in an amount of 200 μL and 4 μL for each well, respectively. To the acceptor plate, Acceptor Sink Buffer (pION inc.) was added in an amount of 200 μL. Both plates were superposed and incubated at 37° C. for 4 hours, and then, UVs in the solutions on the side of acceptor and on the side of donor were measured with an UV plate reader (190 to 500 nm). Compounds with poor UV absorption were measured by LC-MS. The permeability coefficient Pe (10^−6 cm/sec) of the drug was calculated by the following formula.

porcine tubulin = porcine tubulin (Sus scrofa, UniProt P02550+P02554); assay: Activity for inhibiting microtubule polymerization using porcine tubulins (2), microtubule polymerization rate; settings: 60 minutes after assay initiation; relative to wells without compound; lower = stronger inhibition
Chain of porcine tubulin (P02554 whole entry): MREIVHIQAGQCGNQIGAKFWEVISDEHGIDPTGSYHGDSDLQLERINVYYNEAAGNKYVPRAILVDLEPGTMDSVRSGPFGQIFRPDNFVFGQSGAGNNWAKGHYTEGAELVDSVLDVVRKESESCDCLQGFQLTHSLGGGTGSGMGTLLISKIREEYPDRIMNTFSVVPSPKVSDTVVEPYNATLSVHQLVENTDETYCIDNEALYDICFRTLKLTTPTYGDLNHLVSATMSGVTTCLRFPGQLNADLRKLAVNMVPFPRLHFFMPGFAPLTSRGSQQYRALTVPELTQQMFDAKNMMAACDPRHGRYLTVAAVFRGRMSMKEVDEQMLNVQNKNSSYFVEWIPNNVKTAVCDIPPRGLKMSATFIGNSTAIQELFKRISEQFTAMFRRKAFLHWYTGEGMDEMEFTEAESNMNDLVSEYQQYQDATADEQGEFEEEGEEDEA
Chain of porcine tubulin (P02550 whole entry): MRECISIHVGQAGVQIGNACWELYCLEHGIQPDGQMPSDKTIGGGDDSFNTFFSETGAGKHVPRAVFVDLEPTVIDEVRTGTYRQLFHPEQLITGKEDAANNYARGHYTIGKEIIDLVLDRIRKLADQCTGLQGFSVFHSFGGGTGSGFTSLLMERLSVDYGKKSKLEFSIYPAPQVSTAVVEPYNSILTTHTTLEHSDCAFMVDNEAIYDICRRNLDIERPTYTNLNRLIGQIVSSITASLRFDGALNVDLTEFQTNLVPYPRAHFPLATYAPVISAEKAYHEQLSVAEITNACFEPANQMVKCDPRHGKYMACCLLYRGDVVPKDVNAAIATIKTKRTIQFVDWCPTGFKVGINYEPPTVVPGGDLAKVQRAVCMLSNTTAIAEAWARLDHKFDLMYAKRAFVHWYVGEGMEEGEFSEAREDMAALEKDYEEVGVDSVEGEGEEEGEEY

Structure (SMILES) | IC50 (Karpas-299 cells) [nM] | Papp (in vitro) [×10⁻⁶ cm/s] | Microtubule polymerization rate (%) (porcine tubulin) | Papp at 4 h (in vitro) [×10⁻⁶ cm/s]
CCOC(=O)CC[C@@H](NC(=O)/C(C)=C/[C@H](C(C)C)N(C)C(=O)[C@@H](NC(=O)[C@@H](N)C(C)(C)c1cn(C)c2ccccc12)C(C)(C)C)C(=O)OCC [Example 1, (2R)-2-{[(2E,4S)-4-{[(2S)-2-{[(2S)-2-Amino-3-methyl-3-(1-methyl-1H-indol-3-yl)butanoyl]amino}-3,3-dimethylbutanoyl](methyl)amino}-2,5-dimethylhex-2-enoyl]amino}pentane diethyl diester] | 93.9 | – | – | –
C/C(=C\[C@H](C(C)C)N(C)C(=O)[C@@H](NC(=O)[C@@H](N)C(C)(C)c1cn(C)c2ccccc12)C(C)(C)C)C(=O)N[C@H](CCC(=O)O)C(=O)O [Example 2, β,β,1-Trimethyl-L-tryptophyl-N-[(3S,4E)-6-{[(1R)-1,3-dicarboxypropyl]amino}-2,5-dimethyl-6-oxohex-4-en-3-yl]-N,3-dimethyl-L-valinamide] | > 125 | 0.2 | 4 | –
CN[C@H](C(=O)N[C@H](C(=O)N(C)[C@H](/C=C(\C)C(=O)N[C@@H](CC(=O)O)C(=O)N[C@@H](CC(=O)O)C(=O)N[C@@H](CC(=O)O)C(=O)N[C@@H](CC(=O)O)C(=O)N[C@@H](CC(=O)O)C(=O)O)C(C)C)C(C)(C)C)C(C)(C)c1cn(C)c2ccccc12 [Example 3, N-{(2E,4S)-2,5-Dimethyl-4-[methyl(N,β,β,1-tetramethyl-L-tryptophyl-3-methyl-L-valyl)amino]hex-2-enoyl}-L-α-aspartyl-L-t-aspartyl-L-α-aspartyl-L-α-aspartyl-L-α-aspartic acid] (H-[NMeTrp(1,β,β-Me3)][Tle][X1]DDDDD-OH) | > 5000 | – | 3 | < 0.1
CN[C@H](C(=O)N[C@H](C(=O)N(C)[C@H](/C=C(\C)C(=O)N[C@H](CCCCN)C(=O)O)C(C)C)C(C)(C)C)C(C)(C)c1cn(C)c2ccccc12 [Example 5] | 87.2 | – | – | –
CN[C@H](C(=O)N[C@H](C(=O)N(C)[C@H](/C=C(\C)C(=O)N[C@@H](CCC(=O)O)C(=O)O)C(C)C)C(C)(C)C)C(C)(C)c1cn(C)c2ccccc12 [Example 6] | 34 | < 0.1 | – | –
CCOC(=O)[C@H](CCC(=O)O)NC(=O)/C(C)=C/[C@H](C(C)C)N(C)C(=O)[C@@H](NC(=O)[C@@H](NC)C(C)(C)c1cn(C)c2ccccc12)C(C)(C)C [Example 13] | – | – | 21 | –
CN[C@H](C(=O)N[C@H](C(=O)N(C)[C@H](/C=C(\C)C(=O)N[C@@H](CCC(=O)N[C@@H](CCC(=O)O)C(=O)O)C(=O)N[C@@H](CCC(=O)O)C(=O)O)C(C)C)C(C)(C)C)C(C)(C)c1cn(C)c2ccccc12 [Example 47] (H-[NMeTrp(1,β,β-Me3)][Tle][X1]E(Glu)E-OH) | 773 | < 0.1 | 3 | –
CN[C@H](C(=O)N[C@H](C(=O)N(C)[C@H](/C=C(\C)C(=O)N[C@H](CCC(=O)N[C@@H](CCCCN)C(=O)O)C(=O)O)C(C)C)C(C)(C)C)C(C)(C)c1cn(C)c2ccc(F)cc12 [Example 52] | 230 | < 0.1 | – | –
CN[C@H](C(=O)N[C@H](C(=O)N(C)[C@H](/C=C(\C)C(=O)N[C@@H](CS(=O)(=O)O)C(=O)O)C(C)C)C(C)(C)C)C(C)(C)c1ccccc1 [Example 53] | 122 | < 0.1 | – | –
CN[C@H](C(=O)N[C@H](C(=O)N(C)[C@H](/C=C(\C)C(=O)N[C@@H](COP(=O)(O)O)C(=O)O)C(C)C)C(C)(C)C)C(C)(C)c1ccccc1 [Example 54] | 22.2 | – | – | –
CN[C@H](C(=O)N[C@H](C(=O)N(C)[C@H](/C=C(\C)C(=O)N[C@H](CCC(=O)O)C(=O)O)C(C)C)C(C)(C)C)C(C)(C)c1cccc(C(F)(F)F)c1 [Example 55] | 34.6 | < 0.1 | 16 | –
CN[C@H](C(=O)N[C@H](C(=O)N(C)[C@H](/C=C(\C)C(=O)N[C@H](CCC(=O)O)C(=O)O)C(C)C)C(C)(C)C)C(C)(C)c1cccc(F)c1 [Example 56] | 275 | 0.7 | 7 | –
C/C(=C\[C@H](C(C)C)N(C)C(=O)[C@@H](NC(=O)[C@H]1CCCCN1C(C)C)C(C)(C)C)C(=O)N[C@H](CCC(=O)O)C(=O)O [Example 57] | > 1000 | < 0.1 | 5 | –
CN[C@H](C(=O)N[C@H](C(=O)N(C)[C@H](/C=C(\C)C(=O)N[C@H](CCC(=O)O)C(=O)O)C(C)C)C(C)(C)C)C(C)(C)C1CCCCC1 [Example 58] | > 1000 | 9 | 5 | –
CNC(C(=O)N[C@H](C(=O)N(C)[C@H](/C=C(\C)C(=O)N[C@H](CCC(=O)O)C(=O)O)C(C)C)C(C)(C)C)C(C)(C)c1ccc(O)cc1 (stereo partly shown) [Example 59] | 412 | 0.5 | 2 | –
CN[C@H](C(=O)N[C@H](C(=O)N(C)[C@H](/C=C(\C)C(=O)N[C@H](CCC(=O)O)C(=O)O)C(C)C)C(C)(C)C)C(C)(C)c1cccc(C#N)c1 [Example 60] | 406 | < 0.1 | 6 | –
CN[C@H](C(=O)N[C@H](C(=O)N(C)[C@H](/C=C(\C)C(=O)N[C@H](CCC(=O)O)C(=O)O)C(C)C)C(C)(C)C)C(C)(C)c1cc(C)cc(C)c1 [Example 62] | – | – | 6 | –
CN[C@H](C(=O)N[C@H](C(=O)N(C)[C@H](/C=C(\C)C(=O)N[C@H](CCC(=O)O)C(=O)O)C(C)C)C(C)(C)C)C(C)(C)c1ccc2ccccc2c1 [Example 64] | 30 | – | – | –
CN[C@@H](C(=O)N[C@H](C(=O)N(C)[C@H](/C=C(\C)C(=O)N[C@H](CCC(=O)O)C(=O)O)C(C)C)C(C)(C)C)C(C)(C)c1cccc(Br)c1 [Example 65] | > 1000 | < 0.1 | – | –
CN[C@H](C(=O)N[C@H](C(=O)N(C)[C@H](/C=C(\C)C(=O)N[C@H](CCC(=O)O)C(=O)O)C(C)C)C(C)(C)C)C(C)(C)c1ccc(C(=O)OC(C)(C)C)cc1 [Example 66] | > 1000 | < 0.1 | 9 | –
CN[C@H](C(=O)N[C@H](C(=O)N(C)[C@H](/C=C(\C)C(=O)N[C@H](CCC(=O)O)C(=O)O)C(C)C)C(C)(C)C)C(C)(C)c1cccc(-c2ccccc2)c1 [Example 67] | 149 | < 0.1 | 42 | –
CN[C@H](C(=O)N[C@H](C(=O)N(C)[C@H](/C=C(\C)C(=O)N[C@H](CCC(=O)O)C(=O)O)C(C)C)C(C)(C)C)C(C)(C)c1cccc(C)c1 [Example 68] | 26.5 | < 0.1 | 4 | –
CN[C@H](C(=O)N[C@H](C(=O)N(C)[C@H](/C=C(\C)C(=O)N[C@H](CCC(=O)O)C(=O)O)C(C)C)C(C)(C)C)C(C)(C)c1cccc(Br)c1 [Example 69] | 97.1 | < 0.1 | 5 | –
CNC(C(=O)N[C@H](C(=O)N(C)[C@H](/C=C(\C)C(=O)N[C@H](CCC(=O)O)C(=O)O)C(C)C)C(C)(C)C)C(C)(C)c1ccc(C(=O)O)cc1 (stereo partly shown) [Example 70] | 721 | 0.9 | – | –
CN[C@H](C(=O)N[C@H](C(=O)N(C)[C@H](/C=C(\C)C(=O)N[C@H](CCC(=O)O)C(=O)O)C(C)C)C(C)(C)C)C(C)(C)c1ccc(C(=O)O)cc1 [Example 71] | 701 | < 0.1 | 4 | –
CN[C@H](C(=O)N[C@H](C(=O)N(C)[C@H](/C=C(\C)C(=O)N[C@@H](CCC(=O)OC)C(=O)OC)C(C)C)C(C)(C)C)C(C)(C)c1cn(C)c2ccccc12 [Example 72] | 106 | < 0.1 | 1 | –
